# Test results as given in publication PMC5447021, “TNF Lectin-Like Domain Restores Epithelial Sodium Channel Function in Frameshift Mutants Associated with Pseudohypoaldosteronism Type 1B” (Frontiers in Immunology, 2017).
# “Also recorded” adds a separate entry of the source.
# Experiments:
# [1] = tested on: V567A/E568A and V567A/E568A/E571A α-ENaC mutants; details: cited from earlier work
# Excerpt: Lucas et al. ([31]) identified positions V567, E568, and E571 in the α-subunit as the crucial sites for binding of the lectin-like domain of TNF. They generated alanine replacement mutants in this region of α-ENaC and examined its interaction with the TIP peptide. […] In fact, this applies to all the frameshift mutants examined here.
# β-ENaC = details: HEK-293, 5 and 10 min; cited from earlier work
# [2] = tested on: A549 and H441 cells or HEK-293 cells heterologously expressing human ENaC; set-up: method as in PMID 24077967, PMID 25029038; details: cited from earlier work
# [3] = tested on: αY447fs (co-expressed with βγ-ENaC); assay: Whole-cell patch clamp, αY447fs + WT βγ; type: cell-based, human; details: read-out: EC50, solnatide, HEK-293, whole-cell, -100 mV, n = 7
# Experimental: (§1) Point mutations of α-, β-, γ- and δ-hENaC and PHA1B frameshift mutations of α-hENaC were prepared with the QuikChange Lightning Site-Directed Mutagenesis Kit (Agilent Technologies, CA, USA). Mutagenic primers were designed individually with the Primer Design Program provided on the producer’s website or for the frameshift mutations the same base changes as reported in patients (see Table 2) were performed. Primers were ordered from Sigma-Aldrich, Vienna, Austria.
# (§2) HEK-293 cells were transfected 1 day after cell seeding using X-tremeGENE HP DNA transfection reagent (Roche Diagnostics, Mannheim, Germany) according to the manufacturer’s protocol. A set of WT or mutant αβγ- or δβγ-hENaC, or α-, β-, γ-, or δ-hENaC alone was used, and the ratio of DNA to transfection reagent was 1:3. The expression was highest 48–72 h after transfection.
# (§3) Electrophysiological experiments were performed as described in detail by Shabbir et al. ([16]). […] Currents were recorded with the patch clamp method in the whole-cell mode. The chamber contained 1 ml of the bath solution of the following composition (in mM): 145 NaCl, 2.7 KCl, 1.8 CaCl2, 2 MgCl2, 5.5 glucose, and 10 HEPES, adjusted to pH 7.4 with 1 M NaOH solution. Micropipettes were pulled from thin-walled borosilicate glass capillaries (Harvard Apparatus, Holliston, MA, USA) with a DMZ Zeitz Puller to obtain electrode resistances ranging from 2 to 5 MΩ. […]
# αI68fsβγ-ENaC = assay: Whole-cell patch clamp, αI68fs + WT βγ; type: cell-based, human
# Experimental: as §1, §2, §3
# [4] = tested on: pathological conditions involving ENaC; details: cited from earlier work
# δD522Xβγ-ENaC = details: cited from earlier work
# δ-ENaC = details: HEK-293, 5 and 10 min; returns after 1 h; cited from earlier work
# αL576XβD546XγD556X = assay: Amiloride-sensitive current, αL576XβD546XγD556X; type: cell-based, human; details: lacking all carboxyl termini, preliminary experiments
# αR448fsβγ-ENaC = target: T1, αR448fsβγ-ENaC (Homo sapiens, UniProt P37088+P51168+P51170); assay: Whole-cell patch clamp, αR448fs + WT βγ; type: cell-based; details: αR448fsβγ preincubated with 100 units PNGase F; 200 nM solnatide or 20 nM TNF; n = 3
# T1 construct: expressed in transfected cells; host or cells: HEK-293
# T1 sequence (P37088 with tags, fused parts or gaps): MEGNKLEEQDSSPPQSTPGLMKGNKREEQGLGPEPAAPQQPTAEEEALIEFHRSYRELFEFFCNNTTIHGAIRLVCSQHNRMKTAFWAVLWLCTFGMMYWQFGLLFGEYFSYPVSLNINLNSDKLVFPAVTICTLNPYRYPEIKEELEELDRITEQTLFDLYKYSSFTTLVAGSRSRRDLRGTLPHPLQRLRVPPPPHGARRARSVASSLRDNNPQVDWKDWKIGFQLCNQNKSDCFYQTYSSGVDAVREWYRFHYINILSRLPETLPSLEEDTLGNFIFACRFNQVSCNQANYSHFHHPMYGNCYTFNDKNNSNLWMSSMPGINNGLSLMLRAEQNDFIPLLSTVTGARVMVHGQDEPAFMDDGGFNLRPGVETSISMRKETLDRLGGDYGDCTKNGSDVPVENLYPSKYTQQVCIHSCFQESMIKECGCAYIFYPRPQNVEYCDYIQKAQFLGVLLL
# T1 sequence (P51168 whole entry partner): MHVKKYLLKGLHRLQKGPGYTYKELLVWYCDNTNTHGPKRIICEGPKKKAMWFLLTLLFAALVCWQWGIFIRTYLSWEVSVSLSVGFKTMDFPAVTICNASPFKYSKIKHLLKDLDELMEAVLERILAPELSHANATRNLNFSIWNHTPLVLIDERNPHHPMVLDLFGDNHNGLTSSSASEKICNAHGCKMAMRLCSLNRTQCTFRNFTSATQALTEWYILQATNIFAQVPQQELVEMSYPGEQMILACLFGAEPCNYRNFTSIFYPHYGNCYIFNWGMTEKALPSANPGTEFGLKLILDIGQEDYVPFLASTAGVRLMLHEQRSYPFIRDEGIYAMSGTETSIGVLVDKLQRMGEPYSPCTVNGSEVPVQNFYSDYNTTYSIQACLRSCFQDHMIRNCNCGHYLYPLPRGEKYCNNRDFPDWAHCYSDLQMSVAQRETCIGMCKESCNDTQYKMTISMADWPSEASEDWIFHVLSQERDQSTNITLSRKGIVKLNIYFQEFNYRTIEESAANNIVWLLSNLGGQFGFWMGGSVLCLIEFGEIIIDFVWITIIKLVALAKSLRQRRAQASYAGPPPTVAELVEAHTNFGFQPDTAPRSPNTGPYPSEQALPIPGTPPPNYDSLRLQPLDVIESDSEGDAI
# T1 sequence (P51170 whole entry partner): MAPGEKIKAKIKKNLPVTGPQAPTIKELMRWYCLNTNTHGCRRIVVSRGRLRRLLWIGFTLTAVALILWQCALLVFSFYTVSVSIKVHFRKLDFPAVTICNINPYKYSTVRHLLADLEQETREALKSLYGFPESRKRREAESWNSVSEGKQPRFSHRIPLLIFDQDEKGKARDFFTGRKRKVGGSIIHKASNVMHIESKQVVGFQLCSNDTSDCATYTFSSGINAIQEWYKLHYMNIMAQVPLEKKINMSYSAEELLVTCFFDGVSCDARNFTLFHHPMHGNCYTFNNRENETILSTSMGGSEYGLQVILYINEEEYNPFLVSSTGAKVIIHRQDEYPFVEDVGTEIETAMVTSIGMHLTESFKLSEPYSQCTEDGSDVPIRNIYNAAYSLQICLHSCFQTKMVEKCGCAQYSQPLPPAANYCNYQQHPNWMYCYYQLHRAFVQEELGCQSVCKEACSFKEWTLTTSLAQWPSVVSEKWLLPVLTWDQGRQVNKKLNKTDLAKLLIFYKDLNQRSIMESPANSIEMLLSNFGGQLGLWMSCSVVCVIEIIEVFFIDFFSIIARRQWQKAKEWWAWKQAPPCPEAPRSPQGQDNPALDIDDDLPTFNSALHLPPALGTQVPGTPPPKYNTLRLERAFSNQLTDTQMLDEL
# Experimental: Currents were recorded with the patch clamp method in the whole-cell mode. […] Chemicals for pipette and bathing solutions were supplied by Sigma-Aldrich (Vienna, Austria). Electrophysiological measurements were carried out with an Axopatch 200B patch clamp amplifier (Axon Instruments, CA, USA).
smiles,measurement,setting,value
"C[C@@H]1NC(=O)CNC(=O)[C@H](CCC(=O)O)NC(=O)[C@@H]2CCCN2C(=O)[C@H]([C@@H](C)O)NC(=O)[C@H](CCC(=O)O)NC(=O)[C@H](CCCNC(=N)N)NC(=O)[C@H](CCC(N)=O)NC(=O)CNC(=O)[C@@H](N)CSSC[C@@H](C(=O)O)NC(=O)[C@H](Cc2ccc(O)cc2)NC(=O)[C@H](Cc2c[nH]c3ccccc23)NC(=O)[C@@H]2CCCN2C(=O)[C@H](CCCCN)NC(=O)[C@H](C)NC(=O)[C@H](CCC(=O)O)NC1=O [solnatide, L-cysteine, L-cysteinylglycyl-L-glutaminyl-L-arginyl-L-α-glutamyl-L-threonyl-L-prolyl-L-α-glutamylglycyl-L-alanyl-L-α-glutamyl-L-alanyl-L-lysyl-L-prolyl-L-tryptophyl-L-tyrosyl-, cyclic (1→17)-disulfide]",Binding capacity,[1]; double V567A/E568A and triple V567A/E568A/E571A α-ENaC mutants,reduced binding capacity
same,Increase in Po,[1]; double and triple α-ENaC TM2 alanine mutants vs WT ENaC,abolition of the increase in Po
same,"Membrane abundance, solnatide",β-ENaC,only slight
same,Na^+ current-enhancing effect after PNGase F,[2],Elimination of the Na^+ current-enhancing effect
same,EC50,[3],57.2 ± 4.8 nM
same,EC50,"αI68fsβγ-ENaC; read-out: EC50, solnatide, αI68fs + WT βγ, HEK-293, whole-cell, -100 mV, n = 9",73.4 ± 13.4 nM
same,Effect of solnatide on current (words),"αI68fsβγ-ENaC; αI68fsβγ-ENaC, HEK-293",induced a current increase in αI68fsβγ-ENaC
same,Efficacy in phase II clinical trials,[4],already proven in pathological conditions involving ENaC in phase II clinical trials
same,Effect of solnatide on amiloride-sensitive current,δD522Xβγ-ENaC,a residual albeit non-significant increase in the amiloride-sensitive current
same,"Current increase, glycosylation sites removed",δD522Xβγ-ENaC; glycosylation sites in extracellular loop removed by mutation,small increase was not seen
same,"Membrane abundance, solnatide",δ-ENaC,significant statistically
same,Effect of solnatide on current (words),αL576XβD546XγD556X,"an even slighter, non-significant increase of current"
same,Current activation after PNGase F,αR448fsβγ-ENaC,no current could be induced; also recorded: neither TNF nor solnatide potentiated amiloride-sensitive current in αR448fsβγ-ENaC following PNGase F treatment
